Drawing on patent US7763584B2, “Hepatitis C virus inhibitors” (priority 2006, dated 2010), this text covers EC50 for one molecule.

The subject of this assay is HCV replicon in HUH-7 cells. Put plainly: HCV replicon FRET assay (EC50 confirmed in replicon luciferase reporter assay). The assay is classed as cell-based. The note with it: Hepatitis C virus, Huh-7, 96 h. From the text:
An HCV replicon whole cell system was established as described by Lohmann V, Korner F, Koch J, Herian U, Theilmann L, Bartenschlager R., Science 285(5424): 110-3 (1999). This system enabled us to evaluate the effects of our HCV Protease compounds on HCV RNA replication. Briefly, using the HCV strain 1b sequence described in the Lohmann paper (Assession number: AJ238799), an HCV cDNA was synthesized by Operon Technologies, Inc. (Alameda, Calif.), and the full-length replicon was then assembled in plasmid pGem9zf(+) (Promega, Madison, Wis.) using standard molecular biology techniques. […]
The HCV replicon FRET assay was developed to monitor the inhibitory effects of compounds described in the disclosure on HCV viral replication. […] After 4 days, cells were first assessed for cytotoxicity using alamar Blue (Trek Diagnotstic Systems) for a CC50 reading. The toxicity of compound (CC50) was determined by adding 1/10th volume of alamar Blue to the media incubating the cells. After 4 h, the fluorescence signal from each well was read, with an excitation wavelength at 530 nm and an emission wavelength of 580 nm, using the Cytofluor Series 4000 (Perspective Biosystems). […]

The EC50 is the concentration needed to bring the measured effect to its halfway point.

The structures appear in SMILES notation.

The molecule `CO[C@@]1(c2ccc(-c3ccccc3)cc2)C[C@H]2C(=O)N[C@]3(C(=O)NS(=O)(=O)C4CC4)C[C@H]3/C=C\CCCCC[C@H](NC(=O)OC(C)(C)C)C(=O)N2C1` [Compound 1, tert-butyl (2R,6S,13aS,14aR,16aS,Z)-2-(biphenyl-4-yl)-14a-(cyclopropylsulfonylcarbamoyl)-2-methoxy-5,16-dioxo-1,2,3,5,6,7,10,11,13a,14,14a,15,16,16a-hexadecahydrocyclopropa[e]pyrrolo[1,2-a][1,4]diazacyclopentadecin-6-ylcarbamate] registered an EC50 of 5 nM.
